This experiment has as its system duration of immobility (despair) in rodents. As to the kind of experiment: Forced Swimming Test (FST). The experiment is classed as in vivo. To be noted: male BALB mice, imipramine.

Experimental: Rodents are placed individually into an transparent acrylic cuboid containing 15 cm (for the mice) or 30 cm (for the rats) of water at 24+1° C. for 6 minutes. The durations of struggling, active movement and immobility in the test is recorded by an automatic device. A 15 minutes pre-test was performed 20-24 hours prior to the test. The duration of immobility is used as a parameter of despair in the rodents.
160-250 g of male Wistar rats were purchased from NSC (National Science Council, Taipei Taiwan). The animals were placed at constant ambient temperature (25±1° C.) with food and water available and on a 12:12-h LD cycle (lights on at 06:00, off at 18:00.)
The FST test as mentioned herein was performed.

`CN(C)CCCN1c2ccccc2CCc2ccccc21` [Imipramine]: the “duration of immobility (in words)” value is “reduction in the duration of immobility”.

The values above are taken from US20040180104A1, “Herbal composition for preventing and/or treating conditions in associated with depression” (priority 2003, published 2004).
